How the values were obtained:
[1] = biological target: T1, NUAK family SNF1-like kinase 2 (Homo sapiens) (UniProt Q9H093); assay: Inhibition of human SNARK/NUAK2 using KKKVSRSGLYRSPSMPENLNRPR as substrate at 1 uM in presence of 32P-ATP by Hotspot assay relative to control; values are per cent of control
T1 sequence (whole entry): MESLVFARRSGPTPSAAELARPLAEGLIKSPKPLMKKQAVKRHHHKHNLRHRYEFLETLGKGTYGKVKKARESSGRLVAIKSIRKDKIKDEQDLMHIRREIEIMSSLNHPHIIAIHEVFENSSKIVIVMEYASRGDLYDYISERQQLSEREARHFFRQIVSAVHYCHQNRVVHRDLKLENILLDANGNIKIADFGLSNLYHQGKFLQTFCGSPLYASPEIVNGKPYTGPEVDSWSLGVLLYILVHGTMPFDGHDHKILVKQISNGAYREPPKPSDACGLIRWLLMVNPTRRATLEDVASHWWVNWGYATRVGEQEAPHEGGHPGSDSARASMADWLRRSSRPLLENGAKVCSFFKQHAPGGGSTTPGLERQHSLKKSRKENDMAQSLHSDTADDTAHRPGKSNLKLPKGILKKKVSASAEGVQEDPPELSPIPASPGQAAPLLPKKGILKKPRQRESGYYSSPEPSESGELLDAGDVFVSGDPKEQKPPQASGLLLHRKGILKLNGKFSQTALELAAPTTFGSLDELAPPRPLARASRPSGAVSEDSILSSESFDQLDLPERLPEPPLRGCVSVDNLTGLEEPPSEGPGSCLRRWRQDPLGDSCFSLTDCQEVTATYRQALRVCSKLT

[2] = biological target: Serine/threonine-protein kinase Chk2 (Homo sapiens) (UniProt O96017); assay: Inhibition of human CHK2 using KKKVSRSGLYRSPSMPENLNRPR as substrate at 1 uM in presence of 32P-ATP by Hotspot assay relative to control; values are per cent of control
Chain of Serine/threonine-protein kinase Chk2 (Homo sapiens) (O96017 whole entry): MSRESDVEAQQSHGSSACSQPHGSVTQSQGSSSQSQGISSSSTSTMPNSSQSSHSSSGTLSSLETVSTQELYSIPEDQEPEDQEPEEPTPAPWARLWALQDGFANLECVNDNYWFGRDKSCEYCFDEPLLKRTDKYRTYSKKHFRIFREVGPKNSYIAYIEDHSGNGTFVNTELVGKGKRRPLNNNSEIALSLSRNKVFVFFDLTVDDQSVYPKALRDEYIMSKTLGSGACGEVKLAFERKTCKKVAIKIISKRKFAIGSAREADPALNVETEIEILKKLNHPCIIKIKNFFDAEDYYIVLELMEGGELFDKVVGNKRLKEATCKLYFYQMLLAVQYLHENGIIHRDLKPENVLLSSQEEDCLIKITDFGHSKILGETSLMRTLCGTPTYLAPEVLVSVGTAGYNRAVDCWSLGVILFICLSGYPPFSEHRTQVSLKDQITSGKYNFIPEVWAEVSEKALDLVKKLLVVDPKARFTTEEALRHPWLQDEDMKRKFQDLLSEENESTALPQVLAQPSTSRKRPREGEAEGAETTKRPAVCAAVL

[3] = biological target: SRSF protein kinase 2 (Homo sapiens) (UniProt P78362); assay: Inhibition of human SRPK2 using GRSRSRSRSR as substrate at 1 uM in presence of 32P-ATP by Hotspot assay relative to control; values are per cent of control
Chain of SRSF protein kinase 2 (Homo sapiens) (P78362 whole entry, looked up): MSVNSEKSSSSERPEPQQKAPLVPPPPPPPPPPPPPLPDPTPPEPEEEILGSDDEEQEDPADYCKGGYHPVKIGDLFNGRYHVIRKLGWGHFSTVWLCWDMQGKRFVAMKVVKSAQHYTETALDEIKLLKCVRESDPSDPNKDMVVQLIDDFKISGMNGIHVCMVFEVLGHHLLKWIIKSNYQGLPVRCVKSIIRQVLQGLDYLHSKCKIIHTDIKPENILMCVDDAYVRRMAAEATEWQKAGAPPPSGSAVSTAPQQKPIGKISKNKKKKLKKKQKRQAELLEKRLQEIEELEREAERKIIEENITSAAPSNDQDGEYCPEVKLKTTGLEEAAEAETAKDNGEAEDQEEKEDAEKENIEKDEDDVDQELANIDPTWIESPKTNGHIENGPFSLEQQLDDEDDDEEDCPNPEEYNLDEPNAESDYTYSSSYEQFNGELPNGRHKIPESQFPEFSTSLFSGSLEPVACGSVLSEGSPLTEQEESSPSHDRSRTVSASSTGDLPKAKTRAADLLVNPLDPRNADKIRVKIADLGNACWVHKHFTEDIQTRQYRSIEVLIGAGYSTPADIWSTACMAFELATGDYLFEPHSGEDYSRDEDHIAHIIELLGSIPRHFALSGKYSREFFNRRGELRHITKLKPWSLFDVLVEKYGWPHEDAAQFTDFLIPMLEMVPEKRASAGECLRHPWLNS

[4] = biological target: T2, cGMP-dependent protein kinase 2 (Homo sapiens) (UniProt Q13237); assay: Inhibition of human PKG2/PRKG2 using LRRASLG as substrate at 1 uM in presence of 32P-ATP by Hotspot assay relative to control; values are per cent of control
T2 sequence (whole entry): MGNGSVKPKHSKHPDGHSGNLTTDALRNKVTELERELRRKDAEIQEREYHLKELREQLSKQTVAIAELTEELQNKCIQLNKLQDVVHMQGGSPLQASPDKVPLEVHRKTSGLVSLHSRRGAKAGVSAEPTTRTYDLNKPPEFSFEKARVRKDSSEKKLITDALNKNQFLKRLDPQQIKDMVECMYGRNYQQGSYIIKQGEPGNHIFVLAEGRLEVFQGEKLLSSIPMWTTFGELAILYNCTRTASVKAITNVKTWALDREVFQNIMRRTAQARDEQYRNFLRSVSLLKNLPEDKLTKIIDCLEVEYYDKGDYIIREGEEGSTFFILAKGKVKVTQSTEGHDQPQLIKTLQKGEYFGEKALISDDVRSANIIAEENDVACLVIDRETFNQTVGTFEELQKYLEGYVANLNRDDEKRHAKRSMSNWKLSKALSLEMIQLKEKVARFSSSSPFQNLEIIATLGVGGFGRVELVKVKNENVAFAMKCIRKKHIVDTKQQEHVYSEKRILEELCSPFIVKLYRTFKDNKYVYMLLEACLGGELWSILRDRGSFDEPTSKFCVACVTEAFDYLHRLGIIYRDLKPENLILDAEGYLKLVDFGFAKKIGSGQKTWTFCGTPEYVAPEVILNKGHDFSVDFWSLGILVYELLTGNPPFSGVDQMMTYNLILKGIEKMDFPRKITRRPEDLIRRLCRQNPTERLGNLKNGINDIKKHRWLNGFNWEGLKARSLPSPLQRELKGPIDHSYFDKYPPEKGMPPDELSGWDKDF

Row | Structure (SMILES) | residual activity [1] | residual activity [2] | residual activity [3] | residual activity [4]
1 | CNC(=O)c1ccc2c(c1)ncn2-c1ccc(CC(=O)OC(C)(C)C)cc1 | 89.7% | 94% | 98.5% | 96.7%
2 | Cc1cc(-c2cnc(N)c3c(-c4ccc5scnc5c4)csc23)n(C)n1 | 95.9% | 97.3% | 96.2% | 70.1%
3 | CC(C)S(=O)(=O)c1ccc2nccc(Nc3ccc4scnc4c3)c2c1 | 108% | 89.6% | 94% | 94.6%

From ChEMBL document CHEMBL5649166, “RIP3 induces apoptosis independent of pronecrotic kinase activity” (Mol Cell, 2014)
